Paper PMC7765930, “Antiproliferative Phenanthrenes from Juncus tenuis: Isolation and Diversity-Oriented Semisynthetic Modification” (Molecules, 2020)
Read-outs that look alike come from different tables or passages of the source.

Test system: MRC-5 human embryonal lung fibroblast cell line
Test: MTT antiproliferative assay, MRC-5
Format: cell-based
Settings: 100–0.19 μM, non-tumoral cells; for IC50: read-out: IC50 (µM) ± SD MRC-5
Method: Breast cancer cell line MCF-7 (ATCC® HTB-22) and the drug-resistant subline of the human breast cancer MCF-7 (ECACC 86012803; KCR) were purchased from LGC Promochem (Teddington, UK). Both cell lines were cultured in Eagle’s Minimal Essential Medium (EMEM, containing 4.5 g/L glucose) supplemented with a non-essential amino acid mixture, a selection of vitamins, and 10% heat-inactivated fetal bovine serum. In every third passage, 0.56 µg/mL doxorubicin was added to the medium, in order to maintain the ABCB1 (P-glycoprotein) expression in KCR cells. A2780 human ovarian cancer cell line (ECACC, European Collection of Authentical Cell Culture, Sigma Cat.no. 93112519) was purchased from Merck KGaA (Darmstadt, Germany). […] The human ovarian cancer cell lines were cultured in RPMI 1640 medium supplemented with 10% heat-inactivated fetal bovine serum. […] HeLa (ATCC® CCL-2™) human cervix carcinoma cell line was purchased from LGC Promochem (Teddington, UK). The cells were cultured in Eagle’s Minimal Essential Medium (EMEM, containing 4.5 g/L glucose) supplemented with a non-essential amino acid mixture, a selection of vitamins, and 10% heat-inactivated fetal bovine serum. MRC-5 human embryonal lung fibroblast cell line (ATCC® CCL-171) was purchased from LGC Promochem, Teddington, UK. The cell line was cultured in Eagle’s Minimal Essential Medium (EMEM, containing 4.5 g/L glucose) supplemented with a non-essential amino acid mixture, a selection of vitamins, and 10% heat-inactivated fetal bovine serum. HTB-26 breast adenocarcinoma cell line was purchased from LGC Promochem, Teddington, UK. The cell line was cultured in RPMI 1640 medium supplemented with 10% heat-inactivated fetal bovine serum. T-47D (ATCC® HTB-133™) ductal carcinoma cell line was purchased from LGC Promochem, Teddington, UK. The cells were cultured in RPMI 1640 medium supplemented with 10% heat-inactivated fetal bovine serum, 2 mM L-glutamine, 1 mM Na-pyruvate, and 100 mM Hepes. All of the cells were incubated at 37 °C, in a 5% CO2 and 95% air atmosphere.
The antiproliferative effect of the compounds was determined on human breast (MCF-7, KCR, T47D, and HTB-26), cervical (HeLa), and ovarian (A2780 and A2780cis) cancer cells, and on MRC-5 (human embryonic lung fibroblast) cell lines. The adherent cells were cultured in 96-well flat-bottomed microtiter plates, using EMEM supplemented with 10% heat-inactivated fetal bovine serum or RPMI 1640 supplemented with 10% heat-inactivated fetal bovine serum, respectively. The density of the cells was adjusted to 6 × 10^3 cells in 100 μL per well, the cells were seeded for 24 h at 37 °C, with 5% CO2, and then the medium was removed from the plates, and fresh medium (100 μL per well) was added to the cells. The effects of increasing concentrations of compounds on cell proliferation were tested in 96-well flat-bottomed microtiter plates. The compounds were diluted in the appropriate medium; the dilutions of compounds were performed in separate plates and then added to the cells. The starting concentration of the compounds was 100 μM, and two-fold serial dilution was performed (concentration range: 100–0.19 μM). The culture plates were incubated at 37 °C for 72 h; at the end of the incubation period, 20 μL of MTT (thiazolyl blue tetrazolium bromide, Sigma) solution (from a stock solution of 5 mg/mL) was added to each well. After incubation at 37 °C for 4 h, 100 μL of sodium dodecyl sulfate (SDS) (Sigma) solution (10% in 0.01 M HCI) was added to each well, and the plates were further incubated, at 37 °C, overnight. Cell growth was determined by measuring the optical density (OD) at 540/630 nm, with a Multiscan EX ELISA reader (Thermo Labsystems, Cheshire, WA, USA). Mean IC50 values were obtained by best-fitting the dose-dependent inhibition curves in GraphPadPrism5 program (GraphPad Software version 5.00 for Windows, San Diego, CA, USA) from four parallel experiments for each cell line.

| Structure (SMILES) | IC50 (72 h) | IC50 (µM) ± SD MRC-5 (72 h) | IC50 (Homo sapiens, MRC5, 72 h) |
| --- | --- | --- | --- |
| N.N.[Cl][Pt][Cl] [Cisplatin, cisplatin, reference compound] | 0.6 µM | – | – |
| C=CC1=C(C)C(=O)C=C2CCC3=C(C=CC(=O)C3(C)OCC)C21OCC (centres unmarked) [Compound 2b] | 57.7 ± 0.3 µM | – | – |
| C=CC1=C(C)C(=O)C=C2CCC3=C(C=CC(=O)C3(C)OC)C21OC (centres unmarked) [Compound 1b] | – | did not show an antiproliferative effect | > 100 µM |
| C=Cc1c(C)c(O)cc2c1-c1ccc(O)c(C)c1CC2 [juncusol] | – | – | 40.9 ± 2 µM |
| C=Cc1cc(O)cc2c1-c1ccc(O)c(C)c1CC2 [effusol] | – | – | 60.1 ± 5.1 µM |
| C=CC1=C(C)C(=O)C=C2CCC3=C(C=CC(=O)C3(C)OCC)C21OCC (centres unmarked) [Compound 2a] | – | did not show an antiproliferative effect | > 100 µM |
| C=CC1=CC(=O)C=C2CCC3=C(C=CC(=O)C3(C)OC)C12OC (centres unmarked) [Compound 3] | – | – | 12.2 ± 0.2 µM |
| C=CC1=CC(=O)C=C2CCC3=C(C=CC(=O)C3(C)OCC)C12OCC (centres unmarked) [Compound 4a] | – | – | 14.3 ± 0.5 µM |
| C=CC1=CC(=O)C=C2CCC3=C(C=CC(=O)C3(C)OCC)C12OCC (centres unmarked) [Compound 4b] | 23.4 ± 1.3 µM | – | – |
